Test results as given in ChEMBL document CHEMBL1201862, “PubChem BioAssay data set” (2004).
Calls of active or inactive are those of the source.

What was measured:
[1] = molecular target: T1, Replicative DNA helicase DnaB (Mycobacterium tuberculosis, UniProt P9WMR3); test: DnaB intein splicing inhibitors, dose response, biochemical, cell-free fluorescence (AID 449749); type: functional
T1 sequence (P9WMR3 whole entry): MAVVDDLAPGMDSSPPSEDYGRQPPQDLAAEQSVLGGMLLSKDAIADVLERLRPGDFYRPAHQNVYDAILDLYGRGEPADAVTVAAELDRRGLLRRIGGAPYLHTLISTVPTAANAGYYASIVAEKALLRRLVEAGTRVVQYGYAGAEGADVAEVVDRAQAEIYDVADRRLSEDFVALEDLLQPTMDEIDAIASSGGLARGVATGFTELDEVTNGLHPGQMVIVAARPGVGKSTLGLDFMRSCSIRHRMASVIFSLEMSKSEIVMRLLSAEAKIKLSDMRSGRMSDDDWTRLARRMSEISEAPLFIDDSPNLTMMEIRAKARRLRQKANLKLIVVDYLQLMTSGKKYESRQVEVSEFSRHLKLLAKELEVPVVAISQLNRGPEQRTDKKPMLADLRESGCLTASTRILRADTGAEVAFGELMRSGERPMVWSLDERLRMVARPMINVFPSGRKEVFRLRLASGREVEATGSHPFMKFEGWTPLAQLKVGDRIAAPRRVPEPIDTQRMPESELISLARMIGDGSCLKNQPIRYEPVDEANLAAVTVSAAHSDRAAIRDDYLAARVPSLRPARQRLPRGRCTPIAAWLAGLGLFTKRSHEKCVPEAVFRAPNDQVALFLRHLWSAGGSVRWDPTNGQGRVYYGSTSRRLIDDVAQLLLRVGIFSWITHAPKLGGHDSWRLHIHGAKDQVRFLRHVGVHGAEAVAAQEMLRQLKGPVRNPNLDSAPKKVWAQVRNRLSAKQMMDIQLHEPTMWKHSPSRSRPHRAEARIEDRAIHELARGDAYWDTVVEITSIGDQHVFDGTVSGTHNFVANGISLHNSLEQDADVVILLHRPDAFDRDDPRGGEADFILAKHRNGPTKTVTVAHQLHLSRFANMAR

Protein RecA = molecular target: T2, Protein RecA (Mycobacterium tuberculosis, UniProt P9WHJ3); test: Fluorescence Cell-Free Homogeneous Dose Retest to Identify Inhibitors of RecA-Intein Splicing Activity. [Related pubchem assays (depositor defined):AID2097, AID2223, AID489010, AID492950]; type: functional
T2 sequence (P9WHJ3 whole entry): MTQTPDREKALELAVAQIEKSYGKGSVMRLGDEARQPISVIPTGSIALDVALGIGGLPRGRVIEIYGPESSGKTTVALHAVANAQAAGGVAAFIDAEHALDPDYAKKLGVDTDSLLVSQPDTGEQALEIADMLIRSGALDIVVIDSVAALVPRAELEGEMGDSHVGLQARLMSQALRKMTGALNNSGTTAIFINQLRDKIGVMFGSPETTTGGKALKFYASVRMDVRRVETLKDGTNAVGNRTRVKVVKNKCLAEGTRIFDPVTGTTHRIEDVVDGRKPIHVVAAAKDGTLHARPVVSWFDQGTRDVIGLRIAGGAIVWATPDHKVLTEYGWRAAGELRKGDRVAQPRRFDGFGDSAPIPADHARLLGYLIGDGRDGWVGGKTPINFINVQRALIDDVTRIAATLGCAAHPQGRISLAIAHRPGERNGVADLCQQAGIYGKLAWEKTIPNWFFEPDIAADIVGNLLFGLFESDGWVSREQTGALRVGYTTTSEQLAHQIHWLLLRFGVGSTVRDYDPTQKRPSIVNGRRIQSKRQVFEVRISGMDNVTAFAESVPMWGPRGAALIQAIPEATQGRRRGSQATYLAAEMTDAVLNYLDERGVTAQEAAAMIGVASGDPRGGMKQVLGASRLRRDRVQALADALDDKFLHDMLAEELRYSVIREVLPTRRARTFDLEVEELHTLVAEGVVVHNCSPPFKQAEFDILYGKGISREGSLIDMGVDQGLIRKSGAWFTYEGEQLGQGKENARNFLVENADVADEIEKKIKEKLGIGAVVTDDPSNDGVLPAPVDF

[2] = molecular target: FAD-linked sulfhydryl oxidase ALR (Homo sapiens, UniProt P55789); test: ALR-catalysed DTT oxidation blockers – biochemical, H2O2 detection, luminescence, cherry-pick, dose response (AID 493248)
Chain of FAD-linked sulfhydryl oxidase ALR (P55789 whole entry): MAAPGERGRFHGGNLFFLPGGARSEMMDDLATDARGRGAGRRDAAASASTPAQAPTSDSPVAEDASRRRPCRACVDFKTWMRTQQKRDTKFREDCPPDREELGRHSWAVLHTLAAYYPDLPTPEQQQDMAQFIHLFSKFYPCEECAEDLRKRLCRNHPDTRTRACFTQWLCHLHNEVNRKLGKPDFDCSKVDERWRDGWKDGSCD

[3] = NIH-3T3 fibroblast cytotoxicity, dose response, cytotoxicity control, cell-based, fluorescence, Alamar Blue, secondary assay (AID 2327); type: functional;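 note: NIH-3T3 mouse fibroblasts cultured with fluconazole at 8 µg/mL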
[4] = fluconazole-exposed Candida albicans growth modulators – fluorescence, retest, confirmation (AID 2467); type: functional, cell-based
[5] = molecular target: T3, Polyadenylate-binding protein 1 (Homo sapiens, UniProt P11940); test: MLLE binding blockers, Cy5 peptide tracer – biochemical, fluorescence polarization, Cy5-PAM2 peptide, secondary, miRNA deadenylation inhibitor project, dose response (AID 602260); type: functional; settings: read-out: IC50_Mean
T3 sequence (P11940 whole entry, the tested form may be a part): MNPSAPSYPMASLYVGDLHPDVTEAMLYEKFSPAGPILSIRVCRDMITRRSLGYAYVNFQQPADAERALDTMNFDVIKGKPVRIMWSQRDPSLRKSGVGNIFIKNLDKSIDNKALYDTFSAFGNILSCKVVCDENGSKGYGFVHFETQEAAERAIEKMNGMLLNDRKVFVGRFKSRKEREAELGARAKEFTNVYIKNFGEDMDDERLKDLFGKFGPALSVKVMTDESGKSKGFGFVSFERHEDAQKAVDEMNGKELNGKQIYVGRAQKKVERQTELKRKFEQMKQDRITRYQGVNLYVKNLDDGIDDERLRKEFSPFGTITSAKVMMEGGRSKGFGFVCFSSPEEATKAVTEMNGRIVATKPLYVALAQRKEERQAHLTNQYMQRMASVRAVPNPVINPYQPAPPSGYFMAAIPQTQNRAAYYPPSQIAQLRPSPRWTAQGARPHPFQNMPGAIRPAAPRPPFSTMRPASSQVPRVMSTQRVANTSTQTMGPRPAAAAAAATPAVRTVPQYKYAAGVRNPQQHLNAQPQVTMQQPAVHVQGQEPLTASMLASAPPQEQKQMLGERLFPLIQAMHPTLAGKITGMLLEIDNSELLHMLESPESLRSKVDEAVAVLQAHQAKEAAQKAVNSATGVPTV

[6] = molecular target: T3, Polyadenylate-binding protein 1; test: MLLE domain peptide-binding blockers, IC50 – biochemical, fluorescence polarization, FITC-PAM2 peptide, dose response (AID 602259); type: functional; settings: read-out: IC50_Mean
Cytochrome P450 1A2 = molecular target: T4, Cytochrome P450 1A2 (Homo sapiens, UniProt P05177);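 note: PubChem cytochrome P450 panel assay, CYP1A2 panel member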
T4 sequence (P05177 whole entry): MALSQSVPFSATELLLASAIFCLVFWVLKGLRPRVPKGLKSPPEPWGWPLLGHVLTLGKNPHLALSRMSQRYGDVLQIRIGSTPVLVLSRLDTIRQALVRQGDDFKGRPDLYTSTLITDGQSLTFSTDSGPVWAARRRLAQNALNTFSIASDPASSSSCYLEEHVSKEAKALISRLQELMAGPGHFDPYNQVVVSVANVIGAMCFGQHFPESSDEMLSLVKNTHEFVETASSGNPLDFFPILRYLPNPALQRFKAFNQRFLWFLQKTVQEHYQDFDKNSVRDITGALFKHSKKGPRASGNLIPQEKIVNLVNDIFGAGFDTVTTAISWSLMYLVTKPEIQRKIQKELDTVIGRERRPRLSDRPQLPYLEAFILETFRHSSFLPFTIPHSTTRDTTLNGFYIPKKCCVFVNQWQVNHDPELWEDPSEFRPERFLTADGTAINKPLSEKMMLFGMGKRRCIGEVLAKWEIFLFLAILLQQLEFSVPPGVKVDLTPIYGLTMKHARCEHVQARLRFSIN

[7] = Luminescence Cell-Based Dose Retest to Confirm Inhibitors of Cancer Stem Cells. [Related pubchem assays (depositor defined):AID2717, AID2721]; type: functional; settings: Homo sapiens
Genome polyprotein = Genome polyprotein (dengue virus type 2, UniProt P29990); test: flavivirus cap methylation enzyme inhibition – biochemical, confirmation dose response, primary screen (AID 588689); type: functional
Chain of Genome polyprotein (P29990 2492-3391 limits assumed): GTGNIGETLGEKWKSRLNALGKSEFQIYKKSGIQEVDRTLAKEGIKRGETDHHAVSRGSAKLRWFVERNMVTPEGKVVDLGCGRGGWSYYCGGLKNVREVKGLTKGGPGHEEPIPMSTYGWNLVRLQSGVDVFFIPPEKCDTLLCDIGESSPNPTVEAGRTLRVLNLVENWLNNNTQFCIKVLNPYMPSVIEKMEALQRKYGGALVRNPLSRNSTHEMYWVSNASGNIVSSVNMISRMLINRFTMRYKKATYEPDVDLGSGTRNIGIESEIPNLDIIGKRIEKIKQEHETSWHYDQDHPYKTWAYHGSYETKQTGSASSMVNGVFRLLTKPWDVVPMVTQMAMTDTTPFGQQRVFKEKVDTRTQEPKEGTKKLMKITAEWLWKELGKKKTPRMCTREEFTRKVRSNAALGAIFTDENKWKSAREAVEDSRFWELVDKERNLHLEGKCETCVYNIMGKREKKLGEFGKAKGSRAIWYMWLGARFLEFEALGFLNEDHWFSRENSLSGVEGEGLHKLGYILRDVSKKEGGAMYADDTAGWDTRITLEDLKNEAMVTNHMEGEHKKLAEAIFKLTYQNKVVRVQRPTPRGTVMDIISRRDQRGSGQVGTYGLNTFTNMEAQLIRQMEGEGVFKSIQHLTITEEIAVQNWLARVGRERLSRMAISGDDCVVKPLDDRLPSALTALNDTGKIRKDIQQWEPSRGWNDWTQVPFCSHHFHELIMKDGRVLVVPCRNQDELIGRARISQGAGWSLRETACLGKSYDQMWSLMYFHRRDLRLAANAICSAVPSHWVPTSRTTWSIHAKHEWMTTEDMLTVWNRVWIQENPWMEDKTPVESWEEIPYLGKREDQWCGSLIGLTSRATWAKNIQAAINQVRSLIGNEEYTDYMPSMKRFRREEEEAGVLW

[8] = molecular target: T5, Corticotropin-releasing factor receptor 2/Corticotropin-releasing factor-binding protein (Homo sapiens, UniProt P24387+Q13324); test: activators of CRF receptor 2 with binding protein – uHTS hits, confirmation (AID 602473); type: functional; settings: read-out: EC50_Mean
T5 sequence (Q13324 whole entry): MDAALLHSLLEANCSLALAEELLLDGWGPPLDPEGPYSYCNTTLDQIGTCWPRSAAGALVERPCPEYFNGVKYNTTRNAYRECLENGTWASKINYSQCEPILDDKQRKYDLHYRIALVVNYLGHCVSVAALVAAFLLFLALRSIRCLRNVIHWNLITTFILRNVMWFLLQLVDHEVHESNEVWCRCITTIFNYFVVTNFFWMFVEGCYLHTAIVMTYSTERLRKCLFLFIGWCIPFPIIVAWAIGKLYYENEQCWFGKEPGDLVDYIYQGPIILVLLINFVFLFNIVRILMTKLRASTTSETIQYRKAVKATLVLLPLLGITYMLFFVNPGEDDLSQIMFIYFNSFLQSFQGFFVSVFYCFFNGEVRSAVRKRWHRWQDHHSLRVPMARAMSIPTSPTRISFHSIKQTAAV
T5 sequence (P24387 whole entry): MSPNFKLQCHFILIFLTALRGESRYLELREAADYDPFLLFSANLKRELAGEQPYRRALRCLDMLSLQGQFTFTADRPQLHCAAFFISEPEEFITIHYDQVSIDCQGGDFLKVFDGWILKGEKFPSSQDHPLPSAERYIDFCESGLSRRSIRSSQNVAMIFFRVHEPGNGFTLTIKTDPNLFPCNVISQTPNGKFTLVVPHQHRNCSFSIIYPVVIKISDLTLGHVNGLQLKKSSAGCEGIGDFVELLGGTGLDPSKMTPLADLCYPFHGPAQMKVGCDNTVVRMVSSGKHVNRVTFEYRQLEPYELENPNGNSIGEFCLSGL

COc1cc(/C=C2/C(=O)N(c3ccc(C)c(C)c3)N=C2C)cc([N+](=O)[O-])c1O
AC50 [1]: 11.3 µM (active)
EC50 (Protein RecA): 8.54 µM (active)

Cc1ccc(Sc2ncnc3onc(C)c23)cc1
AC50 [2]: 9.91 µM (active)
AC50 [1]: 14.9 µM (active)
EC50 (Protein RecA): 6.8 µM (active)

CC(NC(=O)OCc1ccccc1)C(=O)Oc1cc2oc(=O)cc(-c3ccccc3)c2cc1Cl (configuration not stated)
EC50 [3]: > 150 µM (inactive)
EC50 [4]: 1.09 µM (active)

Cc1[nH]n(C(N)=S)c(=O)c1C(c1ccccc1)C(C#N)C#N (configuration not stated)
AC50 [1]: 16.2 µM (active)
EC50 (Protein RecA): 12.9 µM (active)

CS(=O)(=O)c1ccc2nc(NC3(C(F)(F)F)N=C4SCCN4C3=O)sc2c1 (configuration not stated)
IC50 [5]: > 66 µM (inactive)
IC50 [6]: > 66 µM (inactive)

Cc1ccc(-n2[nH]c(C)c(/C=N/c3ccc4[nH]c(O)nc4c3)c2=O)cc1C
IC50 [5]: 35.3 µM (inactive)
IC50 [6]: 22 µM (inactive)
AC50 (Cytochrome P450 1A2): 12.6 µM (inconclusive)

O=C(O)CCN1C(=O)C(=C2CCCCCC2)SC1=S
AC50 [7]: 40.8 µM (active)
IC50 [5]: > 66 µM (inactive)
IC50 [6]: > 66 µM (inactive)

COc1ccc(C(O)c2nccc3cc(OC)c(OC)cc23)cc1OC (configuration not stated)
AC50 [1]: 3.56 µM (active)
EC50 (Protein RecA): 10.7 µM (active)

Cc1[nH]n(-c2ccccc2)c(=O)c1C(c1ccc(O)c([N+](=O)[O-])c1)c1c(C)[nH]n(-c2ccccc2)c1=O
AC50 [1]: 2.53 µM (active)
EC50 (Protein RecA): 1.01 µM (active)
IC50 (Genome polyprotein): 28.7 µM (active)

CSCCC(NC(=O)c1ccccc1)C(=O)N/N=C(\C)c1ccccc1 (configuration not stated)
EC50 [8]: 7.06 µM (active)

CCN1CCN(c2c(Cl)cccc2NC(=O)c2ccc3c(c2)OCCO3)CC1
AC50 [1]: > 380 µM (inactive)
EC50 (Protein RecA): > 380 µM (inactive)

O=C1NC[C@@H](c2ccccc2)OC(=O)[C@H](Cc2ccc(F)cc2)CC/C=C/C[C@H]1CC(=O)N(CCO)Cc1ccccc1
EC50 [8]: > 53 µM (inactive)

C=CCC1=C/C(=C\c2c(N)n3nc(CC(=O)N4CCCC4)sc3nc2=O)C=C(OC)C1=O
EC50 [8]: 10.6 µM (active)
